Reference: patent US11345694B2, “Antibacterial compounds” (DISCUVA LTD., priority 2017, dated 2022)
Converted amounts (≈) assume the structure as drawn.

Key:
[1] = system: K. pneumoniae H151440671 (KP10); assay: MIC broth microdilution; format: cell-based, Klebsiella pneumoniae; conditions: for MIC: Klebsiella pneumoniae
How it was run: (§1)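 Growth inhibition read after 20-24 hour incubation at 37° C in ambient atmosphere; MIC is the lowest compound concentration with no growth. Planktonic bacteria in cation-adjusted Müller-Hinton broth were exposed to two-fold dilutions (0.39-200 μM final; ≤2% DMSO final) per CLSI guidelines.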

[2] = system: K. pneumoniae NCTC 13438 (KP1); assay: MIC broth microdilution; format: cell-based, Klebsiella pneumoniae; conditions: for MIC: Klebsiella pneumoniae, NCTC13438
How it was run: as §1

[3] = system: K. pneumoniae H154020667 (KP6); assay: MIC broth microdilution; format: cell-based, Klebsiella pneumoniae; conditions: for MIC: Klebsiella pneumoniae
How it was run: as §1

[4] = system: K. pneumoniae H154680676 (KP5); assay: MIC broth microdilution; format: cell-based, Klebsiella pneumoniae; conditions: for MIC: Klebsiella pneumoniae
How it was run: as §1

[5] = system: K. pneumoniae ATCC 700603 (KP3); assay: MIC broth microdilution; format: cell-based, Klebsiella pneumoniae; conditions: for MIC: Klebsiella pneumoniae, ATCC700603
How it was run: as §1

[6] = system: K. pneumoniae H154600588 (KP8); assay: MIC broth microdilution; format: cell-based, Klebsiella pneumoniae; conditions: for MIC: Klebsiella pneumoniae
How it was run: as §1

[7] = system: K. pneumoniae H154640784 (KP7); assay: MIC broth microdilution; format: cell-based, Klebsiella pneumoniae; conditions: for MIC: Klebsiella pneumoniae
How it was run: as §1

[8] = system: K. pneumoniae H154300688 (KP9); assay: MIC broth microdilution; format: cell-based, Klebsiella pneumoniae; conditions: for MIC: Klebsiella pneumoniae
How it was run: as §1

[9] = system: human hepatocarcinoma cell line ATCC HB-8065 (HepG2); assay: Human cell viability (CellTiter-Glo); format: cell-based; conditions: Homo sapiens; HepG2 cells, 24 h incubation, CellTiter-Glo luminescence, 0.2-100 μM; read-out: IC50 values against the HepG2 cell line
How it was run: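 HepG2 cells were seeded at 20,000 cells/well in MEM with 10% FBS and, after 24 h, exposed for 24 h at 37° C. to two-fold dilutions (final 0.2-100 μM) in MEM with 1% FBS and 1% DMSO. Viability was read by CellTiter-Glo luminescence, with IC50 from a 4-parameter logistic fit.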

[10] = system: Serratia marcescens SL1344 (Sm); assay: MIC broth microdilution; format: cell-based
How it was run: (§2)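 Read-out is visible growth: the MIC is the lowest compound concentration that prevents it after incubating 20-24 hours at 37° C in air. Compounds span 0.39-200 μM final (two-fold steps, up to 2% DMSO) in cation-adjusted Müller-Hinton broth, following CLSI guidelines for planktonic bacteria.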

[11] = system: Salmonella typhimurium XNAA5 (St); assay: MIC broth microdilution; format: cell-based; conditions: for MIC: Salmonella enterica
How it was run: as §2

[12] = system: Acinetobacter baumannii ATCC 17978 (AB); assay: MIC broth microdilution; format: cell-based; conditions: for MIC: ATCC17978
How it was run: as §2

[13] = system: Escherichia coli K12 (EC); assay: MIC broth microdilution; format: cell-based
How it was run: as §2

[14] = system: Klebsiella pneumoniae ATCC 10031 (KP2); assay: MIC broth microdilution; format: cell-based; conditions: for MIC: ATCC10031
How it was run: as §1

[15] = system: Staphylococcus aureus ATCC 35556 (SA); assay: MIC broth microdilution; format: cell-based; conditions: for MIC: ATCC35556
How it was run: as §2

[16] = system: Pseudomonas aeruginosa ATCC 33359 (PA); assay: MIC broth microdilution; format: cell-based; conditions: for MIC: ATCC33359
How it was run: as §2

[17] = system: Enterobacter cloacae DSM 30054 (Ed); assay: MIC broth microdilution; format: cell-based; conditions: for MIC: DSM30054
How it was run: as §1

[18] = system: E. coli NCTC 13441 (UPEC); assay: MIC broth microdilution; format: cell-based, Escherichia coli; conditions: for MIC: Escherichia coli, NCTC13441
How it was run: as §2

MIC [1] [µM]	MIC [2] [µM]	MIC [3] [µM]	MIC [4] [µM]	MIC [5] [µM]	MIC [6] [µM]	MIC [7] [µM]	MIC [8] [µM]	IC50 [9] [µM]	MIC [10] [µM]	MIC [11] [µM]	MIC [12] [µM]	MIC [13] [µM]	MIC [14] [µM]	MIC [15] [µM]	MIC [16] [µM]	MIC [17] [µM]	MIC [18] [µM]	Structure (SMILES)	MIC KP10 [1]	MIC KP1 [2]	further results
≤ 1	≤ 1	≤ 1	≤ 1	≤ 1	≤ 1	≤ 1	≤ 1	25 to 100	≤ 1	≤ 1	> 100	≤ 1	≤ 1	> 100	> 100	≤ 1	≤ 1	Cc1cc(-c2nc(N)[nH]c2-c2ccc(OCc3ccc(F)cc3)c(F)c2)ccn1 [Example 16, 5-(3-Fluoro-4-((4-fluorobenzyl)oxy)phenyl)-4-(2-methylpyridin-4-yl)-1H-imidazol-2-amine]	–	–	–
≤ 1	1 to 10 (≈ 0.308 to 3.08 µg/mL)	≤ 1	≤ 1	1 to 10 (≈ 0.308 to 3.08 µg/mL)	1 to 10 (≈ 0.308 to 3.08 µg/mL)	1 to 10 (≈ 0.308 to 3.08 µg/mL)	≤ 1	> 100	1 to 10 (≈ 0.308 to 3.08 µg/mL)	≤ 1	> 100	≤ 1	≤ 1	> 100	> 100	≤ 1	≤ 1	Cc1cc(-c2[nH]c(N)nc2-c2ccc3c(c2)OCCO3)ccn1 [Example 23, 4-(2,3-Dihydrobenzo[b][1,4]dioxin-6-yl)-5-(2-methylpyridin-4-yl)-1H-imidazol-2-amine]	–	–	–

The remaining lines, values behind:

Structure (SMILES)	MIC [1] [µM]	MIC [2] [µM]	MIC [3] [µM]	MIC [4] [µM]	MIC [5] [µM]	MIC [6] [µM]	MIC [7] [µM]	MIC [8] [µM]	IC50 [9] [µM]	MIC [10] [µM]	MIC [11] [µM]	MIC [12] [µM]	MIC [13] [µM]	MIC [14] [µM]	MIC [15] [µM]	MIC [16] [µM]	MIC [17] [µM]	MIC [18] [µM]	MIC KP10 [1]	MIC KP1 [2]	further results
Nc1cc(-c2[nH]c(N)nc2-c2ccc(OCc3ccc(F)cc3)cc2)ccn1 [Example 7, 4-(2-Amino-4-(4-((4-fluorobenzyl)oxy)phenyl)-1H-imidazol-5-yl)pyridin-2-amine]	≤ 1	1 to 10 (≈ 0.375 to 3.75 µg/mL)	≤ 1	≤ 1	1 to 10 (≈ 0.375 to 3.75 µg/mL)	1 to 10 (≈ 0.375 to 3.75 µg/mL)	1 to 10 (≈ 0.375 to 3.75 µg/mL)	≤ 1	25 to 100	≤ 1	≤ 1	> 100	≤ 1	≤ 1	10 to 100 (≈ 3.75 to 37.5 µg/mL)	> 100	≤ 1	≤ 1	–	–	–
C[C@@H](O)[C@H]1C(=O)N2C(C(=O)O)=C(SCCN=CN)C[C@H]12 [IPM]	–	–	–	–	–	–	–	–	–	–	–	–	–	–	–	–	–	–	C (a MIC of from 10 to 100 is assigned the letter C)	C (a MIC of from 10 to 100 is assigned the letter C)	MIC KP6 [3]: B (a MIC of from 1 to 10 is assigned the letter B); MIC KP5 [4]: B (a MIC of from 1 to 10 is assigned the letter B); MIC KP3 [5]: B (a MIC of from 1 to 10 is assigned the letter B); MIC KP8 [6]: D (a MIC of over 100 is assigned the letter D); MIC KP7 [7]: C (a MIC of from 10 to 100 is assigned the letter C); MIC KP9 [8]: D (a MIC of over 100 is assigned the letter D); MIC Sm [10]: B (a MIC of from 1 to 10 is assigned the letter B); MIC St [11]: B (a MIC of from 1 to 10 is assigned the letter B); MIC AB [12]: A (an MIC (μM) of less or equal to 1 is assigned the letter A); MIC EC [13]: A (an MIC (μM) of less or equal to 1 is assigned the letter A); MIC KP2 [14]: B (a MIC of from 1 to 10 is assigned the letter B); MIC SA [15]: A (an MIC (μM) of less or equal to 1 is assigned the letter A); MIC PA [16]: B (a MIC of from 1 to 10 is assigned the letter B); MIC Ecl [17]: B (a MIC of from 1 to 10 is assigned the letter B); MIC UPEC [18]: A (an MIC (μM) of less or equal to 1 is assigned the letter A)
C[C@H]1c2cccc(O)c2C(=O)C2=C(O)[C@]3(O)C(=O)C(C(N)=O)=C(O)[C@@H](N(C)C)[C@@H]3[C@@H](O)[C@@H]21 [DOX]	–	–	–	–	–	–	–	–	–	–	–	–	–	–	–	–	–	–	B (a MIC of from 1 to 10 is assigned the letter B)	C (a MIC of from 10 to 100 is assigned the letter C)	MIC KP6 [3]: C (a MIC of from 10 to 100 is assigned the letter C); MIC KP5 [4]: C (a MIC of from 10 to 100 is assigned the letter C); MIC KP3 [5]: C (a MIC of from 10 to 100 is assigned the letter C); MIC KP8 [6]: C (a MIC of from 10 to 100 is assigned the letter C); MIC KP7 [7]: C (a MIC of from 10 to 100 is assigned the letter C); MIC KP9 [8]: C (a MIC of from 10 to 100 is assigned the letter C); MIC Sm [10]: B (a MIC of from 1 to 10 is assigned the letter B); MIC St [11]: B (a MIC of from 1 to 10 is assigned the letter B); MIC AB [12]: A (an MIC (μM) of less or equal to 1 is assigned the letter A); MIC EC [13]: B (a MIC of from 1 to 10 is assigned the letter B); MIC KP2 [14]: A (an MIC (μM) of less or equal to 1 is assigned the letter A); MIC SA [15]: A (an MIC (μM) of less or equal to 1 is assigned the letter A); MIC PA [16]: C (a MIC of from 10 to 100 is assigned the letter C); MIC Ecl [17]: B (a MIC of from 1 to 10 is assigned the letter B); MIC UPEC [18]: C (a MIC of from 10 to 100 is assigned the letter C)
